Measurements reported in ChEMBL document CHEMBL2073864, “Transport of glyburide by placental ABC transporters: implications in fetal drug exposure” (Placenta, 2006).

How the values were obtained:
Assay type in all cases: functional, cell-based
[1] = biological target: T1, ATP-binding cassette sub-family C member 2 (Homo sapiens, UniProt Q92887); experiment: TP_TRANSPORTER: inhibition of 5-carboxyfluorescein accumulation in MRP2-expressing MDCK cells; conditions: dog
[2] = biological target: T1, ATP-binding cassette sub-family C member 2; experiment: TP_TRANSPORTER: inhibition of 5-carboxyfluorescein accumulation by glyburide at a concentration of 200uM in MRP2-expressing MDCK cells; set-up: scale not given: the % may be the effect or the level left; conditions: dog
[3] = biological target: T2, Broad substrate specificity ATP-binding cassette transporter ABCG2 (Homo sapiens, UniProt Q9UNQ0); experiment: TP_TRANSPORTER: inhibition of mitoxantrone efflux in BCRP-expressing MCF7-MX cells
T2 sequence (Q9UNQ0 whole entry): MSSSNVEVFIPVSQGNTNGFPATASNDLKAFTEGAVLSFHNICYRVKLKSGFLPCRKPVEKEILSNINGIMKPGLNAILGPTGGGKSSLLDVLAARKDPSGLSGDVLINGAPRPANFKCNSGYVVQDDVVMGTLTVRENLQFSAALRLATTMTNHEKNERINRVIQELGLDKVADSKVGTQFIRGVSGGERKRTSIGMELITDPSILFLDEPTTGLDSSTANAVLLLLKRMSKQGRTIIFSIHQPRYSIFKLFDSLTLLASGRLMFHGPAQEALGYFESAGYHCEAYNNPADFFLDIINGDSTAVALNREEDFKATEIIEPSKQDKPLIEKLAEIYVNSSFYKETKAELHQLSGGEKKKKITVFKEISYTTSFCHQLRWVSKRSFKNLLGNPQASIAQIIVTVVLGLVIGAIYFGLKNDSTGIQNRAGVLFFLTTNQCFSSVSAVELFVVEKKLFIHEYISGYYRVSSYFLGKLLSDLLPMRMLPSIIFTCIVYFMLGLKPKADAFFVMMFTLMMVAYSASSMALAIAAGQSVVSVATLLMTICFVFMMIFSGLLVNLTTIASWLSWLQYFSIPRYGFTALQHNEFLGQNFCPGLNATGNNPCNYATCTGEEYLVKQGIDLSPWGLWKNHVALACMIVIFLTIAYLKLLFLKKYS

[4] = biological target: Multidrug resistance associated protein (Homo sapiens) (UniProt Q96QA9); experiment: TP_TRANSPORTER: inhibition of 5-carboxyfluorescein accumulation by glyburide at a concentration of 200uM in MRP3-expressing MDCK cells; set-up: scale not given: the % may be the effect or the level left
Chain of Multidrug resistance associated protein (Homo sapiens) (Q96QA9 as listed by the source): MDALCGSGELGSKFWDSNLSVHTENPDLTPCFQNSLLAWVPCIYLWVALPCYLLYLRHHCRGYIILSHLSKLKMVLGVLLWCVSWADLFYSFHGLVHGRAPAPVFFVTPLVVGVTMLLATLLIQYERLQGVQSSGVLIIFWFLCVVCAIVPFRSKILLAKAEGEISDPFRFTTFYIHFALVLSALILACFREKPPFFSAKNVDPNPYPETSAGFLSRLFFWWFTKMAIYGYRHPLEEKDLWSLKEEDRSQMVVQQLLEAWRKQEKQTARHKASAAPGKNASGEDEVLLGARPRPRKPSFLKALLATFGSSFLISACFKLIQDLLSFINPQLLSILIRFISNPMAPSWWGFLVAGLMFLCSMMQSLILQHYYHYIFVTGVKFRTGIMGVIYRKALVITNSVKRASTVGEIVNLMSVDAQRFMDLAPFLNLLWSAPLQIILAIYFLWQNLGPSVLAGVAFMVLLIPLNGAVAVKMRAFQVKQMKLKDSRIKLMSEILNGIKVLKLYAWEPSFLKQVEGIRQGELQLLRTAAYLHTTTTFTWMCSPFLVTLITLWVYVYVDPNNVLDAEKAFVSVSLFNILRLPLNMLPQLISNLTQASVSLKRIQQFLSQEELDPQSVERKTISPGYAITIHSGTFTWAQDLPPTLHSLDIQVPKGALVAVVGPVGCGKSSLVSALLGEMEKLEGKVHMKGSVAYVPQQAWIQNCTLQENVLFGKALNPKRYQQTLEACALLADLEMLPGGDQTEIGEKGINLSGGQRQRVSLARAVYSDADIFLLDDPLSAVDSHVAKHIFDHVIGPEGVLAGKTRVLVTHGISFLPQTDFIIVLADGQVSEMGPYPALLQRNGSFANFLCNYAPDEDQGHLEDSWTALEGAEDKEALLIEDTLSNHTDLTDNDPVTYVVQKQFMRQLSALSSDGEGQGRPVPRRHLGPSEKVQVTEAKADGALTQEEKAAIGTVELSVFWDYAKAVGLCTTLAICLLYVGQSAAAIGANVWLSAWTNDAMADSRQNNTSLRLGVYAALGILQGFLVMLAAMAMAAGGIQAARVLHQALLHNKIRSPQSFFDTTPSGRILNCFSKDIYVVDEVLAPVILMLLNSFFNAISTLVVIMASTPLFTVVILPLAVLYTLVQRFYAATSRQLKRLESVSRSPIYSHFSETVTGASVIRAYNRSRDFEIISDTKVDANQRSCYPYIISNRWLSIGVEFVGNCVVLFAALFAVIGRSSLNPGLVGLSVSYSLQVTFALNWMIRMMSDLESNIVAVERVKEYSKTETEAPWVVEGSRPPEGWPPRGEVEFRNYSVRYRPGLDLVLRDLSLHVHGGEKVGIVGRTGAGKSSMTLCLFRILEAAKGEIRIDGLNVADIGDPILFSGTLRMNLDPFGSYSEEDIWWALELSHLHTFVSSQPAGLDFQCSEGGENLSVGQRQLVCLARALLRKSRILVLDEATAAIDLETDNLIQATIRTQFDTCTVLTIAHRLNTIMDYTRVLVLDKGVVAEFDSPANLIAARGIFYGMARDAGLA

[5] = biological target: Multidrug resistance associated protein (Homo sapiens) (UniProt Q96QA9); experiment: TP_TRANSPORTER: inhibition of 5-carboxyfluorescein accumulation by glyburide at a concentration of 10uM in MRP3-expressing MDCK cells
[6] = biological target: T3, Multidrug resistance-associated protein 1 (Mus musculus, UniProt O35379); experiment: TP_TRANSPORTER: inhibition of 5-carboxyfluorescein accumulation in the presence of glyburide at a concentration of 10uM in MRP1-expressing HeLa cells; conditions: human
T3 sequence (O35379 whole entry): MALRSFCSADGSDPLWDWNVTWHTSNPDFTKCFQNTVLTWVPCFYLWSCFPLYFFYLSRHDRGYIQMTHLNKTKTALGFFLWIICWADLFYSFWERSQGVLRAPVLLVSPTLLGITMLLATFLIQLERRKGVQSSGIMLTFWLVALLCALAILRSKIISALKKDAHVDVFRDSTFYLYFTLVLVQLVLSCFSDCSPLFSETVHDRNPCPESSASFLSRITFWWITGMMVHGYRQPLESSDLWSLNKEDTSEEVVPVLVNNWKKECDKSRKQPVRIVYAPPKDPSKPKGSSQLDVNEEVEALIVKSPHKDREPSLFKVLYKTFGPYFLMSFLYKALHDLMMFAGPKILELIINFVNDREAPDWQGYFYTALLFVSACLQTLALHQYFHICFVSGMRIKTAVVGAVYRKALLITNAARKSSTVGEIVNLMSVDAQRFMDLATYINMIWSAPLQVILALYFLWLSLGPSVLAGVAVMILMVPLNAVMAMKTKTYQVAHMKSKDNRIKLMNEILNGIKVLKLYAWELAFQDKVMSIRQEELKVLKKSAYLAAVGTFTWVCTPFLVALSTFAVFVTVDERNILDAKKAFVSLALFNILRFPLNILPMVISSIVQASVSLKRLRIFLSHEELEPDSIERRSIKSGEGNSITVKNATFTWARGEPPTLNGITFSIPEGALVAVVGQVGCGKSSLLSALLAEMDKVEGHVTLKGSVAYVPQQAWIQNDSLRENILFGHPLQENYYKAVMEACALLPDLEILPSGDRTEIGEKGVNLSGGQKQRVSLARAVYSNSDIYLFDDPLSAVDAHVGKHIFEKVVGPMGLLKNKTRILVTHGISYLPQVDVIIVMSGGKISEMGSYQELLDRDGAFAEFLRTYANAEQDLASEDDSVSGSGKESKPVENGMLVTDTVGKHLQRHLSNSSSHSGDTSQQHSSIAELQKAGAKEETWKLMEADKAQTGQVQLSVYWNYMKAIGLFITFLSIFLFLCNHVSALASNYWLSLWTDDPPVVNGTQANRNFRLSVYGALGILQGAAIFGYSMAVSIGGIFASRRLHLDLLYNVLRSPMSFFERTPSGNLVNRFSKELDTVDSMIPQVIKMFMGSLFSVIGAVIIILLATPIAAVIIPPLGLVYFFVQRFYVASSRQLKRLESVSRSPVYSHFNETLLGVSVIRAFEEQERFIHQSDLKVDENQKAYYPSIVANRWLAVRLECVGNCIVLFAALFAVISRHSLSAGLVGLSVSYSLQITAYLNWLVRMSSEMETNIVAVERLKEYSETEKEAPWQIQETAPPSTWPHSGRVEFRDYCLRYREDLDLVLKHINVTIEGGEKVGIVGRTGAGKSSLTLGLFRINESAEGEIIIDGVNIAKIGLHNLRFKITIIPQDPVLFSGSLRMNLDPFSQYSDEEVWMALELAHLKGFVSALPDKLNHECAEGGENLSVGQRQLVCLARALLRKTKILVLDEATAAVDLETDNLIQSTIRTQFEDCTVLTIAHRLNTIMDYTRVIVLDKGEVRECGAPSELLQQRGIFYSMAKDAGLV

[7] = biological target: Multidrug resistance associated protein (Homo sapiens) (UniProt Q96QA9); experiment: TP_TRANSPORTER: inhibition of glyburide accumulation by indomethacin at a concentration of 200uM in MRP3-expressing MDCK cells
[8] = biological target: Multidrug resistance associated protein (Homo sapiens) (UniProt Q96QA9); experiment: TP_TRANSPORTER: inhibition of 5-carboxyfluorescein accumulation by indomethacin at a concentration of 200uM in MRP3-expressing MDCK cells; set-up: scale not given: the % may be the effect or the level left
[9] = biological target: T1, ATP-binding cassette sub-family C member 2; experiment: TP_TRANSPORTER: inhibition of glyburide accumulation in MRP2-expressing MDCK cells; conditions: dog
[10] = biological target: T3, Multidrug resistance-associated protein 1; experiment: TP_TRANSPORTER: inhibition of glyburide accumulation in the presence of indomethacin at a concentration of 200uM in MRP1-expressing HeLa cells; conditions: human
[11] = biological target: T3, Multidrug resistance-associated protein 1; experiment: TP_TRANSPORTER: inhibition of 5-carboxyfluorescein accumulation in the presence of indomethacin at a concentration of 200uM in MRP1-expressing HeLa cells; set-up: scale not given: the % may be the effect or the level left; conditions: human

T1 sequence (Q92887 whole entry): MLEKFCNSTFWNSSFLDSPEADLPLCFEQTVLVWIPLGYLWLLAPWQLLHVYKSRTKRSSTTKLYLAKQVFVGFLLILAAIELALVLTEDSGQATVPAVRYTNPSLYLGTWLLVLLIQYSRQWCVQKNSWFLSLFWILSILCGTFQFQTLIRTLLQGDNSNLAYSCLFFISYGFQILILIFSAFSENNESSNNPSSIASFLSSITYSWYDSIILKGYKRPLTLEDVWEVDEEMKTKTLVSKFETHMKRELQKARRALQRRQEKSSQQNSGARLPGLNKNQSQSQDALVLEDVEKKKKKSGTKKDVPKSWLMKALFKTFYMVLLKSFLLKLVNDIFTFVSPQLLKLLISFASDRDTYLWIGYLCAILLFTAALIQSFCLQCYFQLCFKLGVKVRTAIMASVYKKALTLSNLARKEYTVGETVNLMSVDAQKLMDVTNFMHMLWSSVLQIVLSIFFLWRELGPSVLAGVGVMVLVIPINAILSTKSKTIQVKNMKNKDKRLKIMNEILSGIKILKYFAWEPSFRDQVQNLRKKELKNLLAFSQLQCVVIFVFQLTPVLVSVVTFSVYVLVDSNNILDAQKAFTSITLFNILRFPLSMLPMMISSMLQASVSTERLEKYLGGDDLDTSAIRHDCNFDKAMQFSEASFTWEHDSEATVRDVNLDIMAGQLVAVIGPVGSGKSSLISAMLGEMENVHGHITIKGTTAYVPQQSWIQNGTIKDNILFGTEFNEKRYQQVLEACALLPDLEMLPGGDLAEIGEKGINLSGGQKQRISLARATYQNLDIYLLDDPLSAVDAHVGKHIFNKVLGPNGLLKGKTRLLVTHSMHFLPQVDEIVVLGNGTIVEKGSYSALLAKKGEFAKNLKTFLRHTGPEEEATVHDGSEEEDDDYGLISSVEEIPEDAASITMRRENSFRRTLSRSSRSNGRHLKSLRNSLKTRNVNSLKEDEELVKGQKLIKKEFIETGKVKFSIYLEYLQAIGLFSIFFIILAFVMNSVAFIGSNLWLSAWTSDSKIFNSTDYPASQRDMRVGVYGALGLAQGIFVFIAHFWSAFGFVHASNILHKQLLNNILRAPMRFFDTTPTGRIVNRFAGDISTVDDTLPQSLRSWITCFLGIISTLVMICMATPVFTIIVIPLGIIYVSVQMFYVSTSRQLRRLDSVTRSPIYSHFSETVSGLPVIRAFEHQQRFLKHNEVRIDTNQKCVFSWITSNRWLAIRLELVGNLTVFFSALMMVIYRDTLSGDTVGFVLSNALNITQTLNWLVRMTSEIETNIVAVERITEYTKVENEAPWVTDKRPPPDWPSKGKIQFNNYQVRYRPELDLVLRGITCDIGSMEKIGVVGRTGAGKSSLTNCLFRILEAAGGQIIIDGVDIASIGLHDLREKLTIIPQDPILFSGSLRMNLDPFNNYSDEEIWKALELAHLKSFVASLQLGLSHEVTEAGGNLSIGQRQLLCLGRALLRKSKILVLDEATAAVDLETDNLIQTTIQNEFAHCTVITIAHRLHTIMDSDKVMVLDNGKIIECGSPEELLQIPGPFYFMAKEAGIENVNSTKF

Activity [1]	Activity [2] [%]	Activity [4] [%]	Activity [5]	Activity [6]	Activity [7] [fold]	Activity [8] [%]	Activity [9]	Activity [10]	Activity [11] [%]	Compound	IC50 [3] [µM]
is not an inhibitor [-]	230	1350	is not a inhibitor [-]	is not an inhibitor [-]						COc1ccc(Cl)cc1C(=O)NCCc1ccc(S(=O)(=O)NC(=O)NC2CCCCC2)cc1 [GLYBURIDE]	150
					1.8	350	is not an inhibitor [-]	inhibitor [+]	170	COc1ccc2c(c1)c(CC(=O)O)c(C)n2C(=O)c1ccc(Cl)cc1 [INDOMETHACIN]	
